Laboratory results: paper PMC11951083, “Highly Specific Miniaturized Fluorescent Monoacylglycerol Lipase Probes Enable Translational Research” (Journal of the American Chemical Society, 2025)
Read-outs that look alike come from different tables or passages of the source.

Assays:
Format in all cases: biochemical
rMAGL = target: T1, rMAGL (Rattus norvegicus, UniProt Q8R431); test: Native MS (RapidFire) 2-AG substrate assay, purified rat MAGL; conditions: for IC50: purified rat MAGL, native MS substrate assay, read-out: IC50 rMAGL
T1 sequence (Q8R431 1-303): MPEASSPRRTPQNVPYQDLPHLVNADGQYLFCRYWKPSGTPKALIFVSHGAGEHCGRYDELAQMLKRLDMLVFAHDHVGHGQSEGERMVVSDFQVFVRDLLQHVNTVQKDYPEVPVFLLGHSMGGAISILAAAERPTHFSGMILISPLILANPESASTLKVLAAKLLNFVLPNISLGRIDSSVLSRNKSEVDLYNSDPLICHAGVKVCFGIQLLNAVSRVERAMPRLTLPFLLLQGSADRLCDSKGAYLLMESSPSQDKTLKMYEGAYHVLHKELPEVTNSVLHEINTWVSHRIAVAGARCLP
Experimental: (§1) In vitro MAGL Inhibition Assay
(§2) Compounds were profiled for MAGL inhibitory activity by determining the enzymatic activity by following the hydrolysis of the natural substrate 2-arachidonoylglycerol (2-AG), resulting in arachidonic acid, which can be followed by mass spectrometry. The 2-AG assay was carried out in 384 well assay plates (PP, Greiner Cat# 784201) in a total volume of 20 µL. Compound dilutions were made in 100% DMSO (VWR Chemicals 23500.297) in a polypropylene plate in 3-fold dilution steps to give a final concentration range in the assay from 12.5 µM to 0.8 pM. 0.25µL compound dilutions (100% DMSO) were added to 9 µL MAGL in assay buffer (50 mM TRIS (GIBCO, 15567-027), 1 mM EDTA (Fluka, 03690-100 mL), 0.01% (v/v) Tween. After shaking, the plate was incubated for 15 min at RT. To start the reaction, 10 µL 2-arachidonoylglycerol in assay buffer was added. The final concentrations in the assay were 50 pM MAGL and 8 µM 2-arachidonoylglyerol. After shaking and 30 min incubation at RT, the reaction was quenched by the addition of 40µL of ACN containing 4µM of d8-arachidonic acid. The amount of arachidonic acid was traced by an online SPE system (Agilent Rapidfire) coupled to a triple quadrupole mass spectrometer (Agilent 6460). A C18 SPE cartridge (G9205A) was used in an ACN/water liquid setup. The mass spectrometer was operated in negative electrospray mode following the mass transitions 303.1 → 259.1 for arachidonic acid and 311.1 → 267.0 for d8-arachidonic acid. The activity of the compounds was calculated based on the ratio of intensities [arachidonic acid / d8-arachidonic acid]. The lowest IC50 value that can be determined with high accuracy is approximately 0.025 nM.

mMAGL = target: T2, mMAGL (Mus musculus, UniProt O35678); test: Native MS (RapidFire) 2-AG substrate assay, purified mouse MAGL; conditions: purified mouse MAGL, native MS substrate assay; read-out: IC50 mMAGL
T2 sequence (O35678 1-303): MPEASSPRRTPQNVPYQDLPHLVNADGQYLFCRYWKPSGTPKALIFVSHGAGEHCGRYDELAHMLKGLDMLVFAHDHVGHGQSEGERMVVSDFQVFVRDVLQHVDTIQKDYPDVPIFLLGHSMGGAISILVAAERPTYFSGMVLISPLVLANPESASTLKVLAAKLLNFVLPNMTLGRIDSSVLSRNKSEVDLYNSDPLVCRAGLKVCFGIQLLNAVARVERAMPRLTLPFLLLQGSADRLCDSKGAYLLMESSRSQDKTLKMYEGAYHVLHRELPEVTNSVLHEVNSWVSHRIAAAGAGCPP
Experimental: as §1, §2

cMAGL = target: T3, cMAGL (Macaca fascicularis, UniProt A0A2K5V664); test: Native MS (RapidFire) 2-AG substrate assay, purified cynomolgus monkey MAGL
T3 sequence (A0A2K5V664 11-297): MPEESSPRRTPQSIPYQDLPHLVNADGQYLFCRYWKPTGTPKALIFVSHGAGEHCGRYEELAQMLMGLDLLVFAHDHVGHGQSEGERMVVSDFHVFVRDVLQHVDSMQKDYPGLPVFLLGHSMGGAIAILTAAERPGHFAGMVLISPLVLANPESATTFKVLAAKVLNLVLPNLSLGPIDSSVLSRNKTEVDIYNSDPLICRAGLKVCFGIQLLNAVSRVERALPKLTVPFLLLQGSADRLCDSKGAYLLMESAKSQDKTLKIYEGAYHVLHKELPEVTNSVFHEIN
Experimental: as §1, §2

MAGL = target: T4, MAGL (Homo sapiens, UniProt Q99685); test: Native MS (RapidFire) 2-AG substrate assay, purified human MAGL; conditions: purified human MAGL, native MS substrate assay; IC50 of covalent inhibitors time-dependent; read-out: IC50 hMAGL
T4 sequence (Q99685 1-303): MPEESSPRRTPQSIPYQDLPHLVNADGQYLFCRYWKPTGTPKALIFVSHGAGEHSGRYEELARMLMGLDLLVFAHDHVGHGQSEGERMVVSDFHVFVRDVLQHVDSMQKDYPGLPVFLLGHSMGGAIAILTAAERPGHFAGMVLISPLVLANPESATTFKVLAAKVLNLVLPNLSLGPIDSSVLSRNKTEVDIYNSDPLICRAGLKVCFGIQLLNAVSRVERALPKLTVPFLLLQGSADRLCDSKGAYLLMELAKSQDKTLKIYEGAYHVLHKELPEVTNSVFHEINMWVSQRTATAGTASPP
Experimental: as §1, §2

[1] = purified cynomolgus monkey MAGL, native MS substrate assay, read-out: IC50 cMAGL

| loss of potency against rat or cynomolgus monkey orthologs (rMAGL; rat or cynomolgus monkey MAGL) | Structure (SMILES) | IC50 (rMAGL) [nM] | IC50 (mMAGL) [nM] | IC50 (cMAGL; [1]) [nM] | IC50 (MAGL) [nM] | IC50 (cMAGL) [nM] |
| --- | --- | --- | --- | --- | --- | --- |
| – | O=C(OC(C(F)(F)F)C(F)(F)F)N1CC2(CC(CC3=C4C=CC=[N+]4[B-](F)(F)n4cccc43)C2)C1 [Compound 2] | 0.2 | 0.33 | 0.24 | 0.39 | – |
| – | O=C1CO[C@H]2CCN(C(=O)N3CC4(CC(CC5=C6C=CC(c7ccc[nH]7)=[N+]6[B-](F)(F)n6cccc65)C4)C3)C[C@H]2N1 [Compound 4a] | 0.47 | 0.18 | – | 0.14 | 0.2 |
| – | O=C(O[C@H](CO)C(F)(F)F)N1CC2(CC(CC3=C4C=CC=[N+]4[B-](F)(F)n4cccc43)C2)C1 [Compound 1] | 0.36 | 0.21 | 0.87 | 0.28 | – |
| – | O=C(OC(C(F)(F)F)C(F)(F)F)N1CC2(CC(CC3=C4C=CC(c5ccc[nH]5)=[N+]4[B-](F)(F)n4cccc43)C2)C1 [Compound 2a] | 0.68 | 0.79 | 0.63 | 0.98 | – |
| – | O=C(N1CC2(CC(CC3=C4C=CC=[N+]4[B-](F)(F)n4cccc43)C2)C1)N1CC2(CC(n3cnc(C4CC4)n3)C2)C1 [Compound 5] | 0.98 | 1.03 | – | 0.58 | 0.5 |
| less than 4 fold | O=C1CO[C@H]2CCN(C(=O)N3CC4(CC(CC5=C6C=CC=[N+]6[B-](F)(F)n6cccc65)C4)C3)C[C@H]2N1 [Compound 4] | 2.4 | 1.33 | 1.14 | 0.94 | – |
